# Legend:
# Type in all cases: in vivo
# [1] = tested on: corn (Zea mays); experiment: Test A postemergence, corn; details: Postemergence
# In short: (§1)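 Greenhouse pot test in a loam–sand blend; compounds delivered in a non-phytotoxic solvent carrying a surfactant, applied either as a directed spray to soil at seeding or over seedlings 2 to 10 cm high with one to two leaves.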
# [2] = tested on: blackgrass (Alopecurus myosuroides); experiment: Test A postemergence, blackgrass; details: Postemergence
# In short: as §1
# [3] = tested on: Ryegrass, Italian (Italian ryegrass, Lolium multiflorum); experiment: Test A preemergence, Ryegrass, Italian; details: Preemergence; for Ryegrass, Italian plant response rating: 125 g ai/ha, visual injury on 0 to 100 scale (0 no effect, 100 complete control), approximately 10 days; for Plant response rating, Ryegrass, Italian: 0 to 100 scale (0 no effect, 100 complete control)
# In short: as §1
# [4] = tested on: Foxtail, Giant (giant foxtail, Setaria faberi); experiment: Test A preemergence, Foxtail, Giant; details: Preemergence; for Foxtail, Giant plant response rating: 125 g ai/ha, visual injury on 0 to 100 scale (0 no effect, 100 complete control), approximately 10 days; for Plant response rating, Foxtail, Giant: 0 to 100 scale (0 no effect, 100 complete control)
# In short: as §1
# [5] = tested on: wheat (Triticum aestivum); experiment: Test A postemergence, wheat; details: Postemergence
# In short: as §1
# [6] = tested on: Ryegrass, Italian (Italian ryegrass, Lolium multiflorum); experiment: Test A postemergence, Ryegrass, Italian; details: Postemergence
# In short: as §1
# [7] = tested on: Foxtail, Giant (giant foxtail, Setaria faberi); experiment: Test A postemergence, Foxtail, Giant; details: Postemergence
# In short: as §1
# [8] = tested on: kochia (Bassia scoparia); experiment: Test A preemergence, kochia; details: Preemergence; for Kochia plant response rating: 125 g ai/ha, visual injury on 0 to 100 scale (0 no effect, 100 complete control), approximately 10 days; for Plant response rating, Kochia: 0 to 100 scale (0 no effect, 100 complete control)
# In short: as §1
# [9] = tested on: pigweed (Amaranthus retroflexus); experiment: Test A postemergence, pigweed; details: Postemergence
# In short: as §1
# [10] = tested on: kochia (Bassia scoparia); experiment: Test A postemergence, kochia; details: Postemergence
# In short: as §1
# [11] = tested on: pigweed (Amaranthus retroflexus); experiment: Test A preemergence, pigweed; details: for Pigweed plant response rating: 125 g ai/ha, visual injury on 0 to 100 scale (0 no effect, 100 complete control), approximately 10 days; for Plant response rating, Pigweed: 0 to 100 scale (0 no effect, 100 complete control)
# In short: as §1
# [12] = tested on: ragweed (common ragweed, Ambrosia artemisiifolia); experiment: Test A preemergence, ragweed; details: Preemergence; for Ragweed plant response rating: 125 g ai/ha, visual injury on 0 to 100 scale (0 no effect, 100 complete control), approximately 10 days; for Plant response rating, Ragweed: 0 to 100 scale (0 no effect, 100 complete control)
# In short: as §1
# [13] = tested on: galium (catchweed bedstraw, Galium aparine); experiment: Test A postemergence, galium; details: Postemergence
# In short: as §1
# [14] = tested on: barnyardgrass (Echinochloa crus-galli); experiment: Test A postemergence, barnyardgrass; details: Postemergence
# In short: as §1
# [15] = tested on: barnyardgrass (Echinochloa crus-galli); experiment: Test A preemergence, barnyardgrass; details: Preemergence; for Barnyardgrass plant response rating: 125 g ai/ha, visual injury on 0 to 100 scale (0 no effect, 100 complete control), approximately 10 days; for Plant response rating, Barnyardgrass: 0 to 100 scale (0 no effect, 100 complete control)
# In short: as §1
# [16] = tested on: ragweed (common ragweed, Ambrosia artemisiifolia); experiment: Test A postemergence, ragweed; details: Postemergence
# In short: as §1
# [17] = 125 g ai/ha, visual injury approx. 10 days, 0 to 100 scale (0 no effect, 100 complete control)
# [18] = 500 g ai/ha, visual injury vs untreated controls after approx. 10 days, 0 to 100 scale (0 no effect, 100 complete control)
# [19] = 31 g ai/ha, visual injury on 0 to 100 scale (0 no effect, 100 complete control), approx. 10 days
# [20] = 125 g ai/ha, 0 to 100 scale (0 no effect, 100 complete control)
# [21] = 31 g ai/ha, visual injury, approx. 10 days
smiles,measurement,setting,value
Cc1ccc(-c2ccnn(C)c2=O)cc1NS(=O)(=O)C(F)(F)F [Compound 59],"Plant response rating, Corn",[1]; [17],10
same,Corn plant response rating,[1]; [18],40
same,"Plant response rating, Blackgrass",[2]; [17],0
same,Blackgrass plant response rating,[2]; [18],70
same,"Ryegrass, Italian plant response rating",[3],0
same,"Plant response rating, Ryegrass, Italian",[3]; 500 g ai/ha,60
same,"Foxtail, Giant plant response rating",[4],20
same,"Plant response rating, Foxtail, Giant",[4]; 500 g ai/ha,70
same,"Plant response rating, Wheat",[5]; [17],0
same,Wheat plant response rating,[5]; [18],40
same,"Plant response rating, Ryegrass, Italian",[6]; [17],0
same,"Ryegrass, Italian plant response rating",[6]; [18],60
same,"Plant response rating, Foxtail, Giant",[7]; [17],10
same,"Foxtail, Giant plant response rating",[7]; [18],70
same,Kochia plant response rating,[8],40
same,"Plant response rating, Kochia",[8]; 500 g ai/ha,90
same,"Plant response rating, Pigweed",[9]; [17],0
same,Pigweed plant response rating,[9]; [18],60
same,"Plant response rating, Kochia",[10]; [17],50
same,Kochia plant response rating,[10]; [18],70
same,Pigweed plant response rating,[11],30
same,"Plant response rating, Pigweed",[11]; 500 g ai/ha,60
same,Ragweed plant response rating,[12],0
same,"Plant response rating, Ragweed",[12]; 500 g ai/ha,30
same,"Plant response rating, Galium",[13]; [17],80
same,Galium plant response rating,[13]; [18],90
same,"Plant response rating, Barnyardgrass",[14]; [17],0
same,Barnyardgrass plant response rating,[14]; [18],80
same,Barnyardgrass plant response rating,[15],0
same,"Plant response rating, Barnyardgrass",[15]; 500 g ai/ha,90
same,"Plant response rating, Ragweed",[16]; [17],20
same,Ragweed plant response rating,[16]; [18],60
Cc1cc(C)c(N(COC(=O)CC(C)C)S(=O)(=O)C(F)(F)F)cc1C1=NOC2(CCCC2)C1 [Compound 152],"Plant response rating, Corn",[1]; [19],10
same,"Plant response rating, Corn",[1]; [20],0
same,"Plant response rating, Blackgrass",[2]; [19],0
same,"Plant response rating, Blackgrass",[2]; [20],0
same,"Plant response rating, Ryegrass, Italian",[3]; [21],0
same,"Ryegrass, Italian plant response rating",[3],40
same,"Plant response rating, Foxtail, Giant",[4]; [21],40
same,"Foxtail, Giant plant response rating",[4],80
same,"Plant response rating, Wheat",[5]; [19],40
same,"Plant response rating, Wheat",[5]; [20],30
same,"Plant response rating, Ryegrass, Italian",[6]; [19],0
same,"Plant response rating, Ryegrass, Italian",[6]; [20],0
same,"Plant response rating, Foxtail, Giant",[7]; [19],10
same,"Plant response rating, Foxtail, Giant",[7]; [20],10
same,"Plant response rating, Kochia",[8]; [21],0
same,Kochia plant response rating,[8],0
same,"Plant response rating, Pigweed",[9]; [19],30
same,"Plant response rating, Pigweed",[9]; [20],60
same,"Plant response rating, Kochia",[10]; [19],10
same,"Plant response rating, Kochia",[10]; [20],10
same,"Plant response rating, Pigweed",[11]; [21],30
same,Pigweed plant response rating,[11],100
same,"Plant response rating, Ragweed",[12]; [21],0
same,Ragweed plant response rating,[12],30
same,"Plant response rating, Galium",[13]; [19],20
same,"Plant response rating, Galium",[13]; [20],60
same,"Plant response rating, Barnyardgrass",[14]; [19],0
same,"Plant response rating, Barnyardgrass",[14]; [20],10
same,"Plant response rating, Barnyardgrass",[15]; [21],0
same,Barnyardgrass plant response rating,[15],70
same,"Plant response rating, Ragweed",[16]; [19],0
same,"Plant response rating, Ragweed",[16]; [20],40

# Source: patent US20230278972A1, “SUBSTITUTED HALOALKYL SULFONANILIDE HERBICIDES” (FMC Corporation, priority 2020, published 2023)
